Experimental data: ChEMBL document CHEMBL5725356, “Anti-fibrotic pyridinones” (2017)

Test: ET-1 Assay: Fibroblasts (primary human lung and dermal, HFL-1, 3T3 etc) are seeded in 96-well plates at ~15000 cells/well and serum starved for 0-48 hours. After media exchange, compounds serially diluted in DMSO are added to the cells. After a brief incubation of ~30 min, stimulants (TGFb, serum, LPA etc) are added followed by further incubation for 16-48 hours. Media is then harvested and stored frozen in plate format for later endothelin-1 (ET-1) determination by ELISA. Toxicity measurements are made using the ATPlite kit (Perkin-Elmer). ET-1 is quantified using an ELISA kit (R&D Systems). The amount of ET-1 produced in the assay wells are back-calculated using the ELISA standard. The ability of a compound to inhibit ET-1 production is typically analyzed by fitting dose-response curves to a 4-parameter logistic function to obtain an EC50 value.
Conditions: HFL1

Structure (SMILES)	EC50
CC(=O)c1ccc(=O)n(-c2ccc(F)cc2)c1	> 200 µM
O=c1ncc(-c2ccc(F)cc2)cn1-c1ccc(OC(F)(F)F)cc1	> 200 µM
COc1cc(-n2cc(-c3cn[nH]c3)c(C)cc2=O)cc(OC)c1OC	> 200 µM
O=C(Nc1cc(=O)n(-c2ccc(OC(F)(F)F)cc2)cc1-c1ccc(F)cc1)Oc1ccccc1	> 200 µM
CCn1c(=O)oc2ccc(-c3cn(-c4ccc(OC(F)(F)F)cc4)c(=O)cc3C)cc21	> 200 µM
Cc1cc(=O)n(-c2cccc(C(F)(F)F)c2)cc1-c1ccccc1	< 50 µM
CCn1c(=O)oc2c(-c3cn(-c4ccc(OC(F)(F)F)cc4)c(=O)cc3C)cccc21	> 200 µM
Cn1cc(-c2cn(-c3ccc(OC(F)(F)F)cc3)c(=O)c3[nH]ccc23)cn1	< 50 µM
Cn1cc(-c2cn(-c3ccc(C#N)cc3)c(=O)c3c2ccn3C)cn1	> 200 µM
Cn1cc(-c2cn(-c3ccc(OC(F)(F)F)cc3)c(=O)c3c2OCC(=O)N3Cc2ccccc2)cn1	> 200 µM
CCn1nc2c(-c3cn[nH]c3)cn(-c3ccc(OC(F)(F)F)cc3)c(=O)c2n1	< 50 µM
O=c1cc(NCc2ccccc2)c(-c2ccc(F)cc2)cn1-c1ccc(OC(F)(F)F)cc1	> 200 µM
Cc1cc(-c2cnn(C)c2)cn(-c2ccccc2)c1=O	in the range around 125 µM
CC(C)n1nnc2c(-c3cnn(C)c3)cn(-c3ccc(OC(F)(F)F)cc3)c(=O)c21	< 50 µM
Cn1cc(-c2cn(-c3ccc(OC(F)(F)F)cc3)c(=O)cc2Oc2ccccc2Cl)cn1	< 50 µM
Cn1cc(-c2cn(-c3ccc(OC(F)(F)F)cc3)c(=O)cc2C(=O)O)cn1	> 200 µM
CCOc1ccc(-n2cc(-c3cn[nH]c3)c(C)cc2=O)c(C)c1	in the range around 125 µM
Cc1cc(=O)n(-c2ccc(OC(F)(F)F)cc2)cc1-c1cccc(F)c1	< 50 µM
Cc1nc2c(=O)n(-c3ccc(OC(F)(F)F)cc3)cc(-c3cn[nH]c3)c2n1C	< 50 µM
COc1cccc(-n2cc(-c3cn[nH]c3)ccc2=O)c1	> 200 µM
Cc1cc(C)c(=O)n(-c2ccccc2)c1	> 200 µM
Cc1cc(=O)n(-c2ccc(OC(F)(F)F)cc2)cc1-c1ccc2c(c1)OC(C)(C)O2	> 200 µM
O=c1cc(NCc2ncccn2)ccn1-c1ccc(OC(F)(F)F)cc1	> 200 µM
CCOc1ccc(-n2cc(-c3ccc4ocnc4c3)c(C)cc2=O)c(C)c1	in the range around 125 µM
O=c1ccc(-c2cccc(Cl)c2)cn1-c1ccccc1Cl	< 50 µM

Structure (SMILES)	EC50
Nc1cc(=O)n(-c2ccc(OC(F)(F)F)cc2)cc1-c1ccc(F)cc1	in the range around 125 µM
COC(=O)Nc1cc(=O)n(-c2ccc(OC(F)(F)F)cc2)cc1-c1cnn(C)c1	> 200 µM
Cc1cc(=O)n(-c2cccc(OC(F)(F)F)c2)cc1-c1ccc(F)cc1	< 50 µM
CCOc1ccc(-n2cc(-c3cnn(C)c3)c(OC3CCOCC3)cc2=O)c(C)c1	in the range around 125 µM
CC(C)Oc1ccc(-n2cc(Br)ccc2=O)cc1	> 200 µM
O=c1c2c(c(-c3ccc(F)cc3)cn1-c1ccc(OC(F)(F)F)cc1)CCCC2	> 200 µM
Cc1cc(=O)n(-c2ccc(OC(F)(F)F)cc2)cc1-c1cccc2[nH]c(=O)oc12	> 200 µM
O=C(NCc1ccccc1)c1cc(=O)n(-c2ccc(OC(F)(F)F)cc2)cc1-c1ccc(F)cc1	> 200 µM
CCn1cnc2c(-c3cnn(C(C)C)c3)cn(-c3ccc(OC(F)(F)F)cc3)c(=O)c21	< 50 µM
CCOc1ccc(-n2cc(-c3cnn(C)c3)c(NCc3cccnc3)cc2=O)c(C)c1	< 50 µM
O=c1ccc(-c2cncnc2)cn1-c1cccc(F)c1	> 200 µM
COCCOc1cc(=O)n(-c2ccc(OC(F)(F)F)cc2)cc1-c1cnn(C)c1	> 200 µM
O=c1cc(C(F)(F)F)c(-c2ccc(F)cc2)cn1-c1ccc(OC(F)(F)F)cc1	in the range around 125 µM
Cc1cc(=O)n(-c2ccc(OC(F)(F)F)cc2)cc1-c1cccc2c1OCC(=O)N2	> 200 µM
O=C(c1ccccc1)n1cc(-c2ccc(=O)n(-c3ccccc3)c2)cn1	> 200 µM
Cc1cc(=O)n(-c2ccc(OC(F)(F)F)cc2)cc1-c1ccc2ncsc2c1	in the range around 125 µM
Cc1cc(=O)n(-c2ccc(OC(F)(F)F)cc2)cc1-c1ccc2nonc2c1	in the range around 125 µM
CCOc1ccc(-n2cc(-c3cnn(C)c3)c(OC)cc2=O)c(C)c1	< 50 µM
Cn1cc(-c2cn(-c3ccc(OC(F)(F)F)cc3)c(=O)cc2OC2CCS(=O)(=O)CC2)cn1	in the range around 125 µM
CC(C)Oc1ccc(-n2cc(-c3ccc(S(N)(=O)=O)cc3)ccc2=O)cc1	> 200 µM
Cc1cc(=O)n(-c2ccc(OC(C)C)cc2C)cc1-c1cnn(C)c1	> 200 µM
Cc1cc(=O)n(-c2ccc(OC(F)(F)F)cc2)cc1-c1ccc2c(c1)OCO2	in the range around 125 µM
O=C1COCCN1CCOc1cc(=O)n(-c2ccc(OC(F)(F)F)cc2)cc1-c1ccc(F)cc1	in the range around 125 µM
Cc1cc(=O)n(-c2ccc(F)c(NC(N)=O)c2)cc1-c1ccc(F)cc1	< 50 µM
CCOc1ccc(-n2cc(Br)ccc2=O)c(C)c1	> 200 µM
